# ± gives the expanded uncertainty stated by the source.
# Conditions: Crystal; visual observation
row,Normal melting temperature [°C],Structure (SMILES)
1,7.04 ± 0.16,CCCCCCCCCCO [decan-1-ol]
2,-15.4 ± 0.16,CCCCCCCCO [octan-1-ol]

# Reference: the NIST ThermoML archive (doi:10.1016/j.fluid.2010.04.016)
